In patent US20250073234A1, “COMBINATION THERAPIES INCLUDING PARP1 INHIBITORS” (Cornell University, priority 2022, published 2025):
Entries after “also recorded” stand apart in the source; their conditions may differ.

Experiments:
[1] = test system: PARP-1; assay: Poly(ADP-ribosyl)ation in WPMY-1 cells (immunoblot, immunoprecipitation); type: cell-based, human; conditions: added to lactate-treated cells, 48 h
Description: Cells for protein analysis were lysed in RIPA buffer (20 mM Tris-HCl, […], 2 mM EDTA, 1% Triton-X, 10% glycerol, 0.1% SDS, and 0.5% sodium deoxycholate) with phosphatase and protease inhibitors. For immunoprecipitations, cells were lysed in IP lysis buffer (100 mM NaCl, 25 mM Tris, 1% Triton-X, 10% glycerol, with phosphatase and protease inhibitors) and immunoprecipitated with 25 μl of 50% slurry of protein […] beads (Bioworld). Immunoprecipitates were washed three times with lysis buffer, once with high salt (500 mM NaCl), and once more with lysis buffer. Protein concentration in lysates was determined by using Protein Assay Kit (Bio-Rad). Cell extracts and immunoprecipitated proteins were denatured, subjected to SDS-PAGE, transferred to PVDF membranes (GE Healthcare). After blocking with 5% nonfat dry milk in Tris-buffered saline and 0.1% Tween (TBS-T), the membranes were incubated with the specific antibodies (as listed in Key Resources Table) overnight at 4° C. After 2 hours incubation with the appropriate horseradish peroxidase-conjugated antibodies, the immune complexes were detected by chemiluminescence (Thermo Scientific) or Near-infrared fluorescence (LI-COR).

[2] = test system: bone marrow stromal cells; assay: qPCR in mouse bone marrow stromal cells; type: cell-based
Description: Total RNA from mouse tissues, cells and cultured organoids was extracted using the TRIZOL reagent (Invitrogen) and the RNeasy Mini Kit (QIAGEN), followed by DNase treatment. After quantification using a Nanodrop 1000 spectrophotometer (Thermo Scientific), RNA was either processed for RNA-seq or reverse-transcribed using random primers and MultiScribe Reverse Transcriptase (Applied Biosystems). Gene expression was analyzed by amplifying 20 ng of the complementary DNA using the CFX96 Real Time PCR Detection System with SYBR Green Master Mix (BioRad) and primers described in Table S1. The amplification parameters were set at 95° C. for 30 seconds, 58° C. for 30 seconds, and 72° C. for 30 seconds (40 cycles total). Gene expression values for each sample were normalized to the 18s RNA.

[3] = test system: PC3 cells; assay: Click-iT EdU proliferation of PC3 cells treated with CM from WPMY-1 cells; type: cell-based, human; conditions: CM from Olaparib-treated WPMY-1, 24 h
Description: WPMY-1 cells were cultured in DMEN containing 10% FBS (basal conditions) or 10% charcoal stripped FBS (ADT conditions), then the cells were treated with vehicle (DMSO), Olaparib 10 μM, Olaparib 10 μM+PEGPH20 2.5 μg/ml for 96 hours, refreshing media and stimuli at 48 hours, conditioned media (CM) was generated by collecting supernatant on day 4. PC3 cells were seeded in a black-walled well (Thermo Fisher) and serum starved overnight. CM from WPMY-1 cells was added to PC3 for 24 h. PC3 were exposed to EdU incorporation for the last 2 hours. Proliferating cells were detected using Click-iT EdU Alexa fluor 488 (Thermo Fisher) following the manufacturer's instructions. Pictures were taken using EVOS M5000 Imaging System and EdU positive were measured using Fiji (Schindelin et al., 2012).

[4] = test system: WPMY-1 cells; assay: Autophagy activation by LC3 lipidation in WPMY-1 cells; type: cell-based, human; conditions: with lysosomal inhibitors
Description: To knock out PARP-1 in WPMY-1 cells, single-guide RNA sequences targeting PARP-1 exon2 were purchased from Synthego and transduced into WPMY-1 cells with recombinant Streptococcus pyogenes Cas9 protein (Truecut Cas9 Protein v2, Thermo), using the Neon Transfection System 1 (Invitrogen) following the manufacturer's protocol and single clones were expanded and screened by protein immunoblotting. To perform AP1-A binding site editing in the SQSTM promoter in WPMY-1 cells, single-guide RNA sequences targeting the human AP1-A binding site (Synthego) was transduced into cells with a Cas9 protein and a single-stranded donor oligonucleotide (ssODN, IDT) using Neon Electroporation System. Single clones were expanded and screened for AP1-A editing by Sanger sequencing. A point mutation to disrupt the API enhancer element in the p62 promoter was introduced by Site Directed Mutagenesis (Stratagene). Knockdown of MCT1, MCT4, FOS, PARP1, PARP2, CD38, ATG5, and SIRT1-7 genes in WPMY-1 cells were achieved by siRNA transfection using Lipofectamine RNAiMAX Transfection Reagent (Invitrogen). […]
Cells for protein analysis were lysed in RIPA buffer (20 mM Tris-HCl, […], 2 mM EDTA, 1% Triton-X, 10% glycerol, 0.1% SDS, and 0.5% sodium deoxycholate) with phosphatase and protease inhibitors. […] Protein concentration in lysates was determined by using Protein Assay Kit (Bio-Rad). […]

SMILES | poly(ADP-ribosyl)ation of c-JUN and c-FOS in lactate-treated cells [1] | markers of stromal activation (Acta2, Has2) ([2]; cells isolated from in vivo treated mice, 40 mg/kg) | markers of TGFβ family (Tgfb3, Tgfb2) and Has3 ([2]; in vitro, Olaparib 10 μM, 96 h) | PC3 proliferation (EdU positive cells) [3] | autophagy activation (LC3 lipidation) [4]
NC(=O)c1ccc[n+]([C@@H]2O[C@H](COP(=O)([O-])OP(=O)(O)OC[C@H]3O[C@@H](n4cnc5c(N)ncnc54)[C@H](O)[C@@H]3O)[C@@H](O)[C@H]2O)c1 [NAD^+] | rescued the poly(ADP-ribosyl) ation of both transcription factors | – | – | – | –
O=C(c1cc(Cc2n[nH]c(=O)c3ccccc23)ccc1F)N1CCN(C(=O)C2CC2)CC1 [Olaparib] | – | enhanced expression of markers of stromal activation | increased expression of markers of TGFβ family | increased PC3 proliferation | induced autophagy activation; also recorded: induces autophagy
